Data reported in patent US10723727B2, “Tubulysin analogs and methods for their preparation” (priority 2016, dated 2020).

What was measured:
[1] = target: T1, tubulin/RB3-stathmin-like-domain (RB3-SLD-tdm) complex (Sus scrofa, UniProt P02550+P02554); test: Tubulin Peptide-Binding Site Competition Assay (fluorescence polarization); set-up: species or system Porcine; conditions: FP competition with BODIPY-labeled vinca peptide probe; read after five hours at 22° C.; read-out: Tubulin Peptide-Binding Site Competition Assay IC50
T1 construct: purchased Cytoskeleton, Inc. T240; host or cells: RB3-SLD was made in house in E. coli
In short: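 The BODIPY vinca-peptide probe was premixed with test compound and then added to porcine tubulin/RB3-SLD, at final concentrations of 3 nM probe, 6 nM tubulin and 100 nM RB3-SLD. The buffer was PIPES pH 7.0 with Tween 20, MgCl2 and EGTA, and 11-point dilutions were run in duplicate. IC50 was fitted from the fluorescence polarization decrease and converted to Ki.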

[2] = test system: N87 (gastric cancer) cells; test: In vitro cell assay (MTS cell viability), N87; assay type: cell-based; conditions: 96 h, free compounds; 96 hours after treatment
Protocol: (§1) In Vitro Cell Assay Procedure
(§2) Target expressing (BT474 (breast cancer), N87 (gastric cancer), HCC1954 (breast cancer), MDA-MB-361-DYT2 (breast cancer)) or non-expressing (HT-29) cells were seeded in 96-well cell culture plates for 24 hours before treatment. Cells were treated with 3-fold serially diluted antibody-drug conjugates or free compounds (i. e. no antibody conjugated to the drug) in duplicate at 10 concentrations. Cell viability was determined by CellTiter 96® AQueous One Solution Cell Proliferation MTS Assay (Promega, Madison Wis.) 96 hours after treatment. Relative cell viability was determined as percentage of untreated control. IC50 values were calculated using a four parameter logistic model #203 with XLfit v4. 2 (IDBS, Guildford, Surry, UK).

[3] = test system: MDA-MB-361-DYT2 (breast cancer) cells; test: In vitro cell assay (MTS cell viability), MDA-MB-361-DYT2; assay type: cell-based; conditions: 96 h, free compounds; 96 hours after treatment
Protocol: as §1, §2

HT-29 cells = test: In vitro cell assay (MTS cell viability), HT-29 (target non-expressing); assay type: cell-based; conditions: Homo sapiens, HT-29, 96 h, free compounds; 96 hours after treatment; read-out: HT29 IC50
Protocol: as §1, §2

CC[C@H](C)[C@H](NC(=O)[C@@]1(C)CCCN1C)C(=O)N(C)[C@H](C[C@@H](OC(C)=O)c1nc(C(=O)N[C@H](CNS(C)(=O)=O)Cc2ccccc2)cs1)C(C)C [#B58, 1,2-dimethyl-D-prolyl-N-{(1R,3R)-1-(acetyloxy)-4-methyl-1-[4-({(2S)-1-[(methylsulphonyl)amino]-3-phenylpropan-2-yl}carbamoyl)-1,3-thiazol-2-yl]pentan-3-yl}-N-methyl-L-isoleucinamide]
IC50 [1]: 5 nM
IC50 [2]: 5.63 nM
IC50 [3]: 2.26 nM
IC50 (HT-29 cells): 1.49 nM

CC[C@H](C)[C@H](NC(=O)[C@@]1(C)CCCN1C)C(=O)N(C)[C@H](C[C@@H](OC(C)=O)c1nc(C(=O)N[C@@H](Cc2ccc(N)cc2)c2nccs2)cs1)C(C)C [#B80, 1,2-dimethyl-D-prolyl-N-[(1R,3R)-1-(acetyloxy)-1-(4-{[(1S)-2-(4-aminophenyl)-1-(1,3-thiazol-2-yl)ethyl]carbamoyl}-1,3-thiazol-2-yl)-4-methylpentan-3-yl]-N-methyl-L-isoleucinamide]
IC50 [1]: 6.5 nM
IC50 [2]: 18.5 nM
IC50 [3]: 4.21 nM
IC50 (HT-29 cells): 4.63 nM

CC[C@H](C)[C@H](NC(=O)[C@@]1(C)CCCN1C)C(=O)N(C)[C@H](C[C@@H](O)c1nc(C(=O)N[C@@H](Cc2ccc(N)cc2)C[C@H](C)C(=O)O)cs1)C(C)C [#B32, 1,2-dimethyl-D-prolyl-N-[(1R,3R)-1-(4-{[(2R,4S)-1-(4-aminophenyl)-4-carboxypentan-2-yl]carbamoyl}-1,3-thiazol-2-yl)-1-hydroxy-4-methylpentan-3-yl]-N-methyl-L-isoleucinamide]
IC50 [1]: 12.3 nM
IC50 [2]: > 100 nM
IC50 [3]: > 100 nM
IC50 (HT-29 cells): > 100 nM

CC[C@H](C)[C@H](NC(=O)[C@@]1(C)CCCN1C)C(=O)N(C)[C@H](C[C@@H](OC(C)=O)c1nc(C(=O)NCC2(c3ccccc3)CC2)cs1)C(C)C [#B53, 1,2-dimethyl-D-prolyl-N-[(1R,3R)-1-(acetyloxy)-4-methyl-1-(4-{[(1-phenylcyclopropyl)methyl]carbamoyl}-1,3-thiazol-2-yl}pentan-3-yl]-N-methyl-L-isoleucinamide]
IC50 [1]: 12.9 nM
IC50 [2]: 52.4 nM
IC50 [3]: 34 nM
IC50 (HT-29 cells): 45.1 nM

CC[C@H](C)[C@H](NC(=O)[C@@]1(C)CCCN1C)C(=O)N(C)[C@H](C[C@@H](OC(C)=O)c1nc(C(=O)NC(CO)Cc2ccccc2)cs1)C(C)C (stereo partly drawn) [#B50, 1,2-dimethyl-D-prolyl-N-[(1R,3R)-1-(acetyloxy)-1-{4-[(1-hydroxy-3-phenylpropan-2-yl)carbamoyl]-1,3-thiazol-2-yl}-4-methylpentan-3-yl]-N-methyl-L-isoleucinamide]
IC50 [1]: 8.6 nM
IC50 [2]: 28.1 nM
IC50 [3]: 12.1 nM
IC50 (HT-29 cells): 8.84 nM

CC[C@H](C)[C@H](NC(=O)[C@@]1(C)CCCN1C)C(=O)N(C)[C@H](C[C@@H](OC(C)=O)c1nc(C(=O)N[C@@H](Cc2ccccc2)[C@@H](O)C(=O)OC)cs1)C(C)C [#B51, 1,2-dimethyl-D-prolyl-N-[(1R,3R)-1-(acetyloxy)-1-(4-{[(2S,3R)-3-hydroxy-4-methoxy-4-oxo-1-phenylbutan-2-yl]carbamoyl}-1,3-thiazol-2-yl)-4-methylpentan-3-yl]-N-methyl-L-isoleucinamide]
IC50 [1]: 11.7 nM
IC50 [2]: 7.78 nM
IC50 [3]: 2.94 nM
IC50 (HT-29 cells): 2.2 nM

CC[C@H](C)[C@H](NC(=O)[C@@]1(C)CCCN1C)C(=O)N(C)[C@H](C[C@@H](OC(C)=O)c1nc(C(=O)N[C@@H](Cc2ccc(N)cc2)C[C@H](C)C(=O)O)cs1)C(C)C [#B9, 1,2-dimethyl-D-prolyl-N-[(1R,3R)-1-(acetyloxy)-1-(4-{[(2R,4S)-1-(4-aminophenyl)-4-carboxypentan-2-yl]carbamoyl}-1,3-thiazol-2-yl)-4-methylpentan-3-yl]-N-methyl-L-isoleucinamide]
IC50 [1]: 2.5 nM
IC50 [2]: 1.07 nM
IC50 [3]: 0.765 nM
IC50 (HT-29 cells): 0.642 nM

CC[C@H](C)[C@H](NC(=O)[C@@]1(C)CCCN1C)C(=O)N(C)[C@H](C[C@@H](OC(C)=O)c1nc(C(=O)N[C@@H](Cc2ccccc2)C(O)c2nccs2)cs1)C(C)C (stereo partly drawn) [#B62, 1,2-dimethyl-D-prolyl-N-[(1R,3R)-1-(acetyloxy)-1-(4-{[(2S)-1-hydroxy-3-phenyl-1-(1,3-thiazol-2-yl)propan-2-yl]carbamoyl}-1,3-thiazol-2-yl)-4-methylpentan-3-yl]-N-methyl-L-isoleucinamide]
IC50 [1]: 4.7 nM
IC50 [2]: 10.4 nM
IC50 [3]: 2.65 nM
IC50 (HT-29 cells): 2.26 nM

CC[C@H](C)[C@H](NC(=O)[C@]1(C)CCCCN1C)C(=O)N(C)[C@H](C[C@@H](OC(C)=O)c1nc(C(=O)N[C@@H](Cc2ccc(N)cc2)C[C@H](C)C(=O)O)cs1)C(C)C [#B23, (2S,4R)-4-{[(2-{(1R,3R)-1-(acetyloxy)-3-[(N-{[(2S)-1,2-dimethylpiperidin-2-yl]carbonyl}-L-isoleucyl)(methyl)amino]-4-methylpentyl}-1,3-thiazol-4-yl)carbonyl]amino}-5-(4-aminophenyl)-2-methylpentanoic acid]
IC50 [2]: 2.71 nM
IC50 [3]: 2.02 nM
IC50 (HT-29 cells): 2.33 nM

CC[C@H](C)[C@H](NC(=O)[C@@]1(C)CCCN1C)C(=O)N(C)[C@H](C[C@@H](NC(C)=O)c1nc(C(=O)N[C@@H](Cc2ccccc2)C[C@H](C)C(=O)OC)cs1)C(C)C [#B20, 1,2-dimethyl-D-prolyl-N-[(1R,3R)-1-(acetylamino)-1-(4-{[(2R,4S)-5-methoxy-4-methyl-5-oxo-1-phenylpentan-2-yl]carbamoyl}-1,3-thiazol-2-yl)-4-methylpentan-3-yl]-N-methyl-L-isoleucinamide]
IC50 [2]: 6.11 nM
IC50 [3]: 2.58 nM
IC50 (HT-29 cells): 3.37 nM

CC[C@H](C)[C@H](NC(=O)[C@@]1(C)CCCN1C)C(=O)N(C)[C@H](C[C@@H](NC(C)=O)c1nc(C(=O)N[C@@H](Cc2ccc(N)cc2)C[C@H](C)C(=O)O)cs1)C(C)C [#B28, 1,2-dimethyl-D-prolyl-N-[(1R,3R)-1-(acetylamino)-1-(4-{[(2R,4S)-1-(4-aminophenyl)-4-carboxypentan-2-yl]carbamoyl}-1,3-thiazol-2-yl)-4-methylpentan-3-yl]-N-methyl-L-isoleucinamide]
IC50 [2]: > 100 nM
IC50 [3]: 81.5 nM
IC50 (HT-29 cells): 74.9 nM

CC[C@H](C)[C@H](NC(=O)[C@@]1(C)CCCN1C)C(=O)N(C)[C@H](C[C@H](O)c1nc(C(=O)N[C@@H](Cc2ccc(N)cc2)C[C@H](C)C(=O)O)cs1)C(C)C [#B33, 1,2-dimethyl-D-prolyl-N-{(1S,3R)-1-(4-{[(2R,4S)-1-(4-aminophenyl)-4-carboxypentan-2-yl]carbamoyl}-1,3-thiazol-2-yl)-1-hydroxy-4-methylpentan-3-yl]-N-methyl-L-isoleucinamide]
IC50 [2]: > 1000 nM
IC50 [3]: > 1000 nM
IC50 (HT-29 cells): > 1000 nM

CCOP(=O)(OCC)[C@@H](C)C[C@H](Cc1ccc(N)cc1)NC(=O)c1csc([C@@H](C[C@H](C(C)C)N(C)C(=O)[C@@H](NC(=O)[C@H]2CCCCN2C)[C@@H](C)CC)OC(C)=O)n1 [#B11, (1R,3R)-1-(4-{[(2S,4S)-1-(4-aminophenyl)-4-(diethoxyphosphoryl)pentan-2-yl]carbamoyl}-1,3-thiazol-2-yl)-4-methyl-3-[methyl(N-{[(2R)-1-methylpiperidin-2-yl]carbonyl}-L-isoleucyl)amino]pentyl Acetate]
IC50 [2]: 0.909 nM
IC50 [3]: 0.609 nM
IC50 (HT-29 cells): 0.954 nM
